Columns and labels:
[1] = tested on: HeLa (human cervical cancer) cells; assay: MTT cell viability assay, HeLa; format: cell-based; details: 44 h + 4 h MTT, read-out: IC50 (50% inhibition of cell viability)
Experimental: (§1) HeLa, A549, A549R, MCF-7 and HepG2 cells were obtained from Experimental Animal Centre of Sun Yat-Sen University (Guangzhou, China). Cells were cultured in DMEM (Dulbecco’s modified Eagle’s medium, Gibco BRL) or RPMI 1640 (Roswell Park Memorial Institute 1640, Gibco BRL) medium, containing 10% FBS (fetal bovine serum, Gibco BRL), 100 μg/mL streptomycin and 100 U/mL penicillin (Gibco BRL).
(§2) The cytotoxicity of the tested complexes towards different cell lines was determined by MTT assay. Cells were cultured in 96-well plates for 24 h. Cells were incubated with a series of concentrations of complexes for another 44 h. 20 μL MTT solution (5 mg/mL) was added into each well and incubated for another 4 h. Then culture media was removed and 150 μL DMSO was added into each well. The plate was shaken for 10 min. The absorbance at 595 nm was measured by a microplate reader.

[2] = tested on: A549 (human lung adenocarcinoma epithelial) cells; assay: MTT cell viability assay, A549; format: cell-based; details: 44 h + 4 h MTT, read-out: IC50 (50% inhibition of cell viability)
Experimental: as §1, §2

[3] = tested on: A549R (cisplatin-resistant A549) cells; assay: MTT cell viability assay, A549R; format: cell-based, human; details: 44 h + 4 h MTT, read-out: IC50 (50% inhibition of cell viability)
Experimental: as §1, §2

[4] = tested on: HepG2 (human hepatocellular liver carcinoma) cells; assay: MTT cell viability assay, HepG2; format: cell-based; details: 44 h + 4 h MTT, read-out: IC50 (50% inhibition of cell viability)
Experimental: as §1, §2

[5] = tested on: MCF-7 (human breast adenocarcinoma) cells; assay: MTT cell viability assay, MCF-7; format: cell-based; details: MCF-7, MTT, 44 h + 4 h MTT; read-out: IC50 (50% inhibition of cell viability)
Experimental: as §1, §2

[6] = Lipophilicity (log Po/w), shake-flask method with ICP-MS; format: physicochemical; details: n-octanol/PBS
Experimental: According to the Lipinski’s rule, appropriate hydrophilicity and lipophilicity are of vital importance for drugs. Excessive hydrophilicity decreases penetration ability of a drug to cross phospholipid layer membrane. On the contrary, high lipophilicity means poor water solubility, which hinders biomedical applications. The lipophilicity, as represented by the log Po/w values, was determined by the shake-flask method according to a literature procedure. The log Po/w values of these Ir(III) complexes fall between −0.81 and 2.59 (Fig. 3A).
The lipophilicity (log Po/w) was determined by the flask-shaking method and analyzed by ICP-MS. Equal amounts of PBS and n-octanol were shaken in the oscillator for 24 h. The mixture was separated to obtain oil and water phases. The mixtures were centrifuged at 3000 × g for 5 min. Equal volumes of n-octanol and PBS were added to the supernatant. The mixtures were shaken for another 24 h, and then centrifuged at 3000 × g for 5 min. The oil and water phases were separated carefully and dried under vacuum. The dried sample was dissolved by HNO3 (65%, 300 μL) and diluted to a final volume of 10 mL with Milli-Q water containing 10 ppb In. The Ir(III) concentration (Co or Cw) was measured by ICP-MS using In as the internal reference. The Po/w value corresponds to Co/Cw.

A549 cells [7] = assay: Cellular uptake efficacy by ICP-MS; format: cell-based, human; details: 20 μM, 1 h
Experimental: It has been reported that cellular uptake efficacy of a compound is affected by many factors, such as lipophilicity, polarization and surface area[32]. As iridium is an exogenous element, its cellular uptake level can be quantitatively recorded by ICP-MS (inductively coupled plasma-mass spectrometry)[15]. A549 (human lung adenocarcinoma epithelial) cells were incubated with Ir(III) complexes (20 μM) for 1 h and analysed. Cell penetration capability of these complexes is correlated with the length of ester group and lipophilicity (Fig. 3B).
A549 cells were cultured in 60 mm dishes and incubated for 24 h. The medium was removed and replaced with medium-DMSO (99:1, v/v) containing Ir(III) complexes (20 μM). After 1 h incubation, cells were trypsined and collected in PBS. After counted by hemocytometer, cells were digested with HNO3 (65%, 300 μL) at room temperature for 24 h. The solution was diluted to a final volume of 10 mL with Milli-Q water containing 10 ppb In. The iridium content was measured by ICP-MS using In as the internal reference.

[8] = tested on: porcine liver esterase (PLE); assay: Hydrolysis by PLE in vitro (ESI-MS); format: in vitro ADME; details: 20 μM, 0.6 units PLE, Tris-HCl 10 mM pH 7.4, 2 h
Experimental: Ester-modified compounds have been used as prodrugs widely. They can be hydrolysed by a variety of esterases selectively or non-selectively, to release active pharmacophores. Herein, porcine liver esterase (PLE) was used as a model to investigate the hydrolytic process of the ester bonds in Ir(III) complexes. The hydrolysis of ten Ir(III) complexes by PLE were detected by ESI-MS (Supplementary Fig. S14)[28]. Equal amounts of Ir(III) complexes (20 μM, 100 μL) were incubated with PLE (0.6 units) in Tris-HCl solution (10 mM, pH 7.4) for 2 h. […] Other complexes with ester substituents show peaks assigned to intact complexes as well as peaks corresponding to hydrolytic products.
Ir(III) complexes (20 μM) were dissolved in freshly prepared Tris-HCl (10 mM, pH 7.4) buffer. Each sample contained 100 μL Ir(III) solution and 0.6 units PLE. After the samples were incubated at 298 K for 2 h, 400 μL acetone (253 K) was added into each sample to quench the enzymatic hydrolysis. Then the samples were centrifuged at 15000 × g for 10 min. The supernatant was collected and analyzed by ESI-MS.

[9] = tested on: all the cell lines tested (A549, A549R, HeLa, HepG2, MCF-7); assay: Cytotoxicity across the cell line panel (MTT); format: cell-based, human
Experimental: The cytotoxicity was evaluated in A549, A549R (cisplatin-resistant A549), HeLa (human cervical cancer), HepG2 (human hepatocellular liver carcinoma) and MCF-7 (human breast adenocarcinoma) cells. Cisplatin was also tested as a positive control. Generally, the anti-proliferative efficacy of Ir(III) complexes is in the following order: 4a ≈ 4b > 5a ≈ 5b > 3b > 3a > 2b > 2a > 1a ≈ 1b, which corresponds to their lipophilicity and cellular uptake efficacy (Table 1). […] Complexes with longer ester substitutions (4a, 5a, 4b and 5b) show much higher cytotoxicity than the other complexes. […] For complexes 1a and 1b, converting the carboxyl acid groups into ester groups can facilitate cellular uptake and improve their anti-proliferative effects. As carboxyl groups are usually deprotonated at physiological pH, the phenomena may be partially attributed to the alteration of molecular charge from neutral/negative to positive under physiological conditions.
as §2, with “The plate was shaken for 10 min.” left out

A549 cells [10] = assay: Inhibition of autophagy by 3-MA, MTT cell viability; format: cell-based, human; details: A549, 3-MA pre-treatment 1 h, 24 h
Experimental: Autophagy is a complicated biological process, which can play either pro-survival or pro-death roles in anticancer therapy. 3-methyladenine (3-MA), a specific class III PI3K inhibitor that can block autophagosome formation, was used to investigate the relationship between autophagy and anti-proliferative activities of 4a and 4b[51]. The anti-proliferative effects are diminished by pre-treatment of A549 cells with 3-MA (5 mM) for 1 h (Fig. 8F). Cell viabilities increase by approximately 1.09−fold and 1.13−fold for 4a (2 μM, 24 h) and 4b (2 μM, 24 h), respectively.
Cells were cultured in a 96-well plate and grown to confluence. Cells were pre-treated with or without 3-MA (5 mM) for 1 h, then incubated with the complexes at the indicated concentrations for 24 h. Cell viability was measured by MTT assay.

IC50 [1] [µM] | IC50 [2] [µM] | IC50 [3] [µM] | IC50 [4] [µM] | IC50 [5] [µM] | Lipophilicity (log Po/w) [6] | cellular uptake level / penetration ability (A549 cells [7]) | hydrolysis of ester bonds by PLE (ESI-MS peaks) [8] | SMILES | cytotoxicity against all the cell lines tested [9] | effect of 3-MA pre-treatment on induced cell death (A549 cells [10])
> 100 | > 100 | > 100 | > 100 | > 100 | -0.49 | lowest penetration ability | remain unchanged | O=C([O-])c1cc[n+]2c(c1)-c1cc(C(=O)O)cc[n+]1[Ir-3]213([c]2cc(F)cc(F)c2-c2cccc[n+]21)[c]1cc(F)cc(F)c1-c1cccc[n+]13 [Complex 1b, Ir(dfppy)2(Hdcbpy)] | inactive | 
> 100 | > 100 | > 100 | > 100 | > 100 | -0.81 | lowest penetration ability | remain unchanged | O=C([O-])c1cc[n+]2c(c1)-c1cc(C(=O)O)cc[n+]1[Ir-3]213([c]2ccccc2-c2cccc[n+]21)[c]1ccccc1-c1cccc[n+]13 [Complex 1a, Ir(ppy)2(Hdcbpy)] | inactive | 

SMILES | IC50 [1] [µM] | IC50 [2] [µM] | IC50 [3] [µM] | IC50 [4] [µM] | IC50 [5] [µM] | Lipophilicity (log Po/w) [6] | cellular uptake level / penetration ability (A549 cells [7]) | hydrolysis of ester bonds by PLE (ESI-MS peaks) [8] | cytotoxicity against all the cell lines tested [9] | effect of 3-MA pre-treatment on induced cell death (A549 cells [10])
N.N.[Cl][Pt][Cl] [cisplatin, reference compound] | 25.1 ± 2.2 | 23.7 ± 1 | 79.4 ± 6.1 | 15.8 ± 1.2 | 16.8 ± 1.5 |  |  |  |  | enhance cell death

— publication PMC5154195, “Ester-Modified Cyclometalated Iridium(III) Complexes as Mitochondria-Targeting Anticancer Agents” (Scientific Reports, 2016)
